This note sets out measurements from patent US20050095663A1, “Process for screening fungitoxic compounds” (priority 2002, published 2005).

In assay [1] the target is T1, Rat liver Δ-9 fatty acid desaturase (Rattus norvegicus, UniProt P07308).
T1 construct: The upper gelatinous layer is the microsomal fraction; from tissue; host or cells: liver of Sprague-Dawley rats (starved, then fed a fat-free diet), microsomal fraction
T1 sequence (P07308 1-358): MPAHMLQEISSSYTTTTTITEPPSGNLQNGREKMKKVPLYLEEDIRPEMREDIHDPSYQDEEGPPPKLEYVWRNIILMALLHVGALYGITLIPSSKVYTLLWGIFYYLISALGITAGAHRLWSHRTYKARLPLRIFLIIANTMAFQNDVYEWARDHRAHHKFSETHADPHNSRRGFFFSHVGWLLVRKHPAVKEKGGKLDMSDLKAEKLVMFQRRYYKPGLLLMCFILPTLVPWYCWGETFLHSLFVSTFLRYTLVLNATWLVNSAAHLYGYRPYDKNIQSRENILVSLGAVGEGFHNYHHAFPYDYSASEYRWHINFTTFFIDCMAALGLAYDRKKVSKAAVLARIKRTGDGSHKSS
The assay can be described thus: Rat liver microsomal Δ-9 fatty acid desaturase assay (14C-palmitoyl-CoA to palmitoleic acid). It counts as biochemical. Here is the method:
The following method was used to prepare the microsomal Δ-9 fatty acid desaturase from rat liver. Sprague-Dawley rats weighing between 120 and 180 g were fed with Purina laboratory chow, starved for 48 h, then fed with a “Fat-Free” test diet (Nutritional Biochemical Corporation) for 20 h. Livers were removed and placed in cold […] Tris-acetate buffer, pH 8.1, containing 0.25 M sucrose and 1 mM EDTA. The tissue was washed twice with 10 volumes of cold buffer, blotted dry and weighed. The tissue was minced and homogenized in 5 ml of buffer per gram of tissue using a glass homogenizer with a loose fitting Teflon pestle. […]
Delta-9 Fatty acid desaturase assays were performed by measuring the desaturation of ^14C-palmitoyl-CoA to palmitoleic acid using 0.5 ml reaction mixtures containing 0.1 M potassium phosphate buffer, pH 7.2, 1 mM NADH and 26 μM ^14C-palmitoyl-CoA (0.028 μCi per assay) in 13×100 mm glass culture tubes. […] The upper cyclohexane layer was removed and 100 μI analyzed by HPLC on a Supelcosil LC-18 column (25×4.6 mm) with methanol-water-phosphoric acid (90:9.9:0.1, by volume) as the mobile phase at a flow rate of 1 ml/min. A Packard A120 RAM detector was used to determine the amounts of radioactivity in the palmitic and palmitoleic acid fractions. […] The concentration of compound 1 which inhibited production of palmitoleic acid by 50% was determined from dose-response curves.

In assay [2] the test system is Saccharomyces cerevisiae (strain X2180-1A). Briefly: Effect of fatty acids on fungitoxicity (growth inhibition, absorbance at 700 nm). Format: cell-based. The settings on record: 22 h, 1.2 ppm. Here is the method:
Fifty ml of YPG culture medium (10 g yeast extract, 20 g peptone, and 20 g glucose per liter of water) in a 250 ml Erlenmeyer flask was inoculated with Saccharomyces cereviae (strain X2180-1A) to give an absorbance at 700 nm of 0.02. This culture was incubated for 18 h at 30° C. with shaking at 225 rpm. The cells were harvested by centrifugation, washed once with SD medium (6.7 g Bacto-yeast nitrogen base and 20 g glucose per liter of water), and suspended in SD medium to give an Absorbance at 700 nm of 0.04. Aliquots (5 ml) of cell suspension were distributed in 20 ml capacity glass vials. Treatments containing compound 1 or cerulenin received 25 μl of a solution of compound in dimethylsulfoxide (DMSO) at 240 ppm or 160 ppm, respectively. Control treatments without compound 1 or cerulenin received 25 ul DMSO. Treatments containing a fatty acid received 25 μl of a 2 mM solution of the fatty acid in a 1% solution of Triton X-100 providing a concentration of 10 μM. Treatments without fatty acid received 25 ul of 1% Triton X-100. All treatments were carried out in duplicate. Vials were incubated for 22 h at 30° C. with shaking at 225 rpm. Growth of the cells was then estimated by diluting the cells in each treatment 3-fold with SD medium and measuring the asorbance at 700 nm. The results in Table 3 show inhibition of growth expressed as a percentage of growth in DMSO controls containing Triton X-100 but lacking Compound 1, cerulenin or fatty acid.

`CCC#CCn1nc(-c2ccc(Cl)cc2)ccc1=O` [Compound 1, 6-(4-chlorophenyl)-2-(2′-pentynyl)pyridazinone]: in assay [1], the “Inhibition of mammalian Δ-9 fatty acid desaturase (in words)” value is “does not inhibit”. In assay [1] (microsomal preparation, 26 μM 14C-palmitoyl-CoA, 30° C., 5 min), the “Rat liver desaturase EC50” value is on record as over 100 ppm. Moreover, the inhibition at 1.2 ppm came out at 76.9% in assay [2] (no fatty acid); 18.7% in assay [2] (oleic acid 10 μM); 95.5% in assay [2] (palmitic acid 10 μM); 21.8% in assay [2] (palmitoleic acid 10 μM); 96.7% in assay [2] (pentadecanoic acid 10 μM).

The term inhibition denotes the share of the control response that was lost under treatment. Read a high inhibition as a strong effect.
